Assay results: the supplement of paper PMC5908809

Key:
[1] = system: normal NK cells expanded with K562-aAPC; assay: percent inhibition of viability; higher = more inhibition; settings: 72 h, IL-2 2.5 ng/mL
Procedure: (§1)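 Drug sensitivity and resistance testing on K562-aAPC-expanded normal NK cells: 5 concentrations (10-fold steps over a 10,000-fold range), 72 h at 37 °C, viability by CellTiter-Glo normalised to DMSO and benzethonium chloride controls; DSS from the fitted curve.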

[2] = system: DERL-7 (IL-2 2.5 ng/mL); assay: as above; settings: 72 h
[3] = system: IMC-1 (IL-2 20 ng/mL); assay: as above; settings: 72 h
[4] = system: KAI3 (IL-2 2.5 ng/mL); assay: as above; settings: 72 h
[5] = system: KHYG-1 (IL-2 2.5 ng/mL); assay: as above; settings: 72 h
[6] = system: NK-92 (IL-2 2.5 ng/mL); assay: as above; settings: 72 h
[7] = system: NK-YS (IL-2 2.5 ng/mL); assay: as above; settings: 72 h
[8] = system: NKL (IL-2 2.5 ng/mL); assay: as above; settings: 72 h
[9] = system: SNK-6 (IL-2 2.5 ng/mL); assay: as above; settings: 72 h
[10] = system: YT (IL-2 2.5 ng/mL); assay: as above; settings: 72 h
[11] = system: normal primary NK cells, pool 1 (3 donors) (IL-2 2.5 ng/mL); assay: as above; settings: 72 h
[12] = system: normal primary NK cells, pool 1 (3 donors), resting (IL-2 0 ng/mL); assay: as above; settings: 72 h
[13] = system: normal primary NK cells, pool 2 (3 donors) (IL-2 2.5 ng/mL); assay: as above; settings: 72 h
[14] = system: normal primary NK cells, pool 3 (3 donors) (IL-2 2.5 ng/mL); assay: as above; settings: 72 h
[15] = system: normal NK cells expanded with K562-aAPC; assay: drug sensitivity score (DSS) (DSS units); higher = more sensitive; extreme values may be limits of the assay; settings: 72 h; IL-2 2.5 ng/mL
Procedure: as §1

[16] = system: DERL-7 (IL-2 2.5 ng/mL); assay: as above; settings: 72 h
[17] = system: IMC-1 (IL-2 20 ng/mL); assay: as above; settings: 72 h
[18] = system: KAI3 (IL-2 2.5 ng/mL); assay: as above; settings: 72 h
[19] = system: KHYG-1 (IL-2 2.5 ng/mL); assay: as above; settings: 72 h
[20] = system: NK-92 (IL-2 2.5 ng/mL); assay: as above; settings: 72 h
[21] = system: NK-YS (IL-2 2.5 ng/mL); assay: as above; settings: 72 h
[22] = system: NKL (IL-2 2.5 ng/mL); assay: as above; settings: 72 h
[23] = system: SNK-6 (IL-2 2.5 ng/mL); assay: as above; settings: 72 h
[24] = system: YT (IL-2 2.5 ng/mL); assay: as above; settings: 72 h
[25] = system: normal primary NK cells, pool 1 (3 donors) (IL-2 2.5 ng/mL); assay: as above; settings: 72 h
[26] = system: normal primary NK cells, pool 1 (3 donors), resting (IL-2 0 ng/mL); assay: as above; settings: 72 h
[27] = system: normal primary NK cells, pool 2 (3 donors) (IL-2 2.5 ng/mL); assay: as above; settings: 72 h
[28] = system: normal primary NK cells, pool 3 (3 donors) (IL-2 2.5 ng/mL); assay: as above; settings: 72 h

COc1cc2/c(=N/c3ccc(Br)cc3F)nc[nH]c2cc1OCC1CCN(C)CC1 [Vandetanib] (max concentration tested 1000 nM)
percent inhibition of viability [%]
Settings	0.1 nM	1 nM	10 nM	100 nM	1000 nM
[1]	-8.6	1.05	-3.45	6.91	29.5
[2]	-0.64	-4.35	-15.9	-3.72	3.05
[3]	-1	-1.11	2.06	4.13	13.1
[4]	0.12	-3.68	-0.86	-6.05	18.6
[5]	-1.45	0.56	5.16	2.56	12.2
[6]	-4.34	-9.89	-2.18	-8.76	7.58
[7]	-3.92	-3.47	0.22	0.66	11.3
[8]	-13.3	-15.3	-10	2.48	9
[9]	12.7	14.6	14.3	33.2	24.4
[10]	2.5	1.99	6.02	-0.29	12.9
[11]	-5.01	-0.24	-7.43	-15.2	2.01
[12]	7.75	-11.8	-1.4	-19.4	11.2
[13]	-2.11	0.59	-1.27	-7.23	12.3
[14]	-11.4	-7.39	-2.76	-1.3	-0.41

Settings	drug sensitivity score
[15]	2.32
[16]	0
[17]	0.22
[18]	0.3
[19]	0
[20]	0
[21]	0.03
[22]	0
[23]	7.25
[24]	0.08
[25]	0
[26]	0
[27]	0.01
[28]	0

C[C@]1(c2nc3c(C(N)=O)cccc3[nH]2)CCCN1 [Veliparib] (max concentration tested 10000 nM)
percent inhibition of viability [%]
Settings	1 nM	10 nM	100 nM	1000 nM	10000 nM
[1]	3.32	0.6	3.03	3.27	19.4
[2]	1.66	5.22	0.09	-2.95	25.1
[3]	1	0.9	0.37	0.91	1.79
[4]	1.98	-0.92	-2.55	12.1	34.3
[5]	-11.7	-8.12	-8.94	-3.41	12
[6]	7.45	4.92	2.84	-4.04	22.9
[7]	-6.78	-8.37	-8.01	-6.17	14.8
[8]	-2.87	-3.94	-5.59	4.18	38.6
[9]	3.66	1.93	-13.1	-1.7	13.8
[10]	1.3	-1.34	0.84	-0.22	3.43
[11]	-7.43	1.5	2.84	7.25	50.4
[12]	-8.38	-4.44	2.95	-4.91	56.4
[13]	-7.51	-2.4	-4.92	-8.11	16.4
[14]	-3.03	-1.96	-0.62	-3.1	15.2

Settings	drug sensitivity score
[15]	0.98
[16]	0.78
[17]	0
[18]	3.29
[19]	0.01
[20]	0.6
[21]	0.1
[22]	2.57
[23]	0.1
[24]	0
[25]	3.89
[26]	2.67
[27]	0.16
[28]	0.16
